Measured values published in US20210259954A1, “CILIA-TARGETING NANOPARTICLES” (Chapman University, priority 2019, published 2021).

What was measured:
[1] = test system: Tie2Cre⋅Pkd2^flox/flox mice; experiment: Endothelia-specific Pkd2 knockout hypertensive mouse model, 8-week treatment (Example 1); type: in vivo
Protocol: One-week-old Tie2Cre⋅Pkd2^WT/WT (with cre activation; control group) or Tie2Cre⋅Pkd2^flox/flox (without cre activation; control group), and Tie2Cre⋅Pkd2^flox/flox (with cre activation; experimental group) mice were injected intra-peritoneally with 5 μg/μL tamoxifen every day for five consecutive days. […] The overall process for the preparation of the final nano-formulation for the animal studies included the following steps. The lyophilized antibody conjugated and drug-loaded CT-DAu-NPs or CT-PLGA-NP powders were first brought to the room temperature from a storage at −50° C. […] The formulations were mixed by vortex for 2 minutes followed by filtration of 0.2 μm. […] The mice were treated every 72 hours with different NPs for 8 weeks. Blood pressure from four-week-old mice was taken with the non-invasive tail-cuff method using the CODA system (Kent Scientific). Blood pressure was measured twice daily for the duration of the study after the initial three days of acclimating each mouse to the cuff. At the end of the 12 weeks of treatment, the hematology parameters, including the blood urea nitrogen (BUN) and plasma nitrate/nitrite measurements, were examined. BUN assays were conducted using a calorimetric kit (Arbor Assays). Plasma nitrate/nitrite concentrations were quantified using a nitrate/nitrite assay kit (Cayman). All steps were followed according to the manufacturer's instructions. […] Then, the tissues were dehydrated using buffered ethanol, and xylene. Finally, the tissues were embedded in wax, sectioned (4 μm, Microtome, HM-3555, Thermo Scientific) and were subsequently stained with standard hematoxylin and eosin (H&E). The pathology slices were observed and imaged using a KEYENCE-BZ-X710 microscope. Mouse heart sections were stained with Masson's Trichrome to detect fibrosis using a Masson's Trichrome Stain Kit (Polysciences, Inc.).

[2] = test system: Tie2Cre⋅Pkd2^flox/flox mice; experiment: Endothelial-specific Pkd2 mouse model, 8-week treatment (Example 2); type: in vivo
Protocol: Mouse models. All mouse experiments were performed by two operators who were blinded to the experimental conditions. All animal procedures were performed according to the University of California Irvine and Chapman University Animal Care and Use Committee Guidelines. One-week-old Tie2Cre⋅Pkd2^WT/WT (with Cre activation; control group), Tie2Cre⋅Pkd2^flox/flox (without Cre activation; control group) or Tie2Cre⋅Pkd2^flox/flox (with Cre activation; experimental group) mice were intraperitoneally injected with 250 μg of tamoxifen in a 50-μL volume daily for five consecutive days. A limited number of IFT88 mice was also used as a cilia-less model in this study. […] On the other hand, fenoldopam-alone (1 μg/kg/min) was perfused for 30 minutes every 72 hours for 8 weeks. […] Five minutes after the CT-Fe2O3-NP injection, a 1.35-T AlNiCo cylindrical magnet (VWR International) was placed at the posterior and anterior regions of the mouse for 10 minutes daily.
Mouse blood pressure measurements. […] Blood pressure was measured twice daily for the duration of the study after the initial three days of acclimating each mouse to the cuff. All measurements were performed by operators in a double-blind. At the end of the 12-week treatment, the haematology results including the BUN and plasma nitrate/nitrite measurements were examined. BUN assays were conducted using an Arbor Assays calorimetric Detection Kit. Plasma nitrate/nitrite concentrations were quantified using a Cayman nitrate/nitrite assay kit. All steps were performed according to the manufacturers' instructions.
H&E and Masson's trichrome staining. Sections of the zebrafish (whole body) and major mouse organs, including the hearts, kidneys, livers, spleens and lungs, were collected and subjected to H&E staining for zebrafish cysts and histopathology by fixation in 10% formalin. Then, the tissues were dehydrated in buffered formalin, ethanol, and xylene. Finally, the tissues were embedded in liquid paraffin, sectioned (4 μm), and stained with H&E for histological examinations. The pathology slices were observed and imaged using a KEYENCE-BZ-X710 microscope. Mouse heart sections were stained with Masson's trichrome to detect fibrosis using a Masson's Trichrome Stain Kit (Polysciences).

p-ERK = experiment: Immunoblotting of phosphorylated ERK; type: cell-based
Protocol: Immunoblotting. […] Samples were kept on ice during sonication to prevent overheating. Samples were then centrifuged at 15,000 rpm for 20 min, and the supernatants were collected and subjected to protein quantification. The PAGE (polyacrylamide gel electrophoresis) on 6-10% SDS gels was performed followed by semi-dry transfer to PVDF membranes using a Bio-Rad Trans-Blot Turbo Transfer System and detection using antibodies against t-ERK (1:1,000), p-ERK (1:1,000), NOS (1:200), and GAPDH (1:2,000) (Cell Signaling Technology). Blots were scanned with both calorimetry to image molecular markers and chemiluminescence to capture the protein signal intensity using a Bio-Rad imager.

Pkd2 zebrafish = experiment: Pkd2 morphant zebrafish ciliopathy model (Example 1); type: in vivo
Protocol: Animal Studies. All animal procedures were performed according to the University of California Irvine or Chapman University Animal Care and Use Committee Guidelines. To eliminate biases and subjective analyses, all animal studies were performed by double-blinded operators. Wild-type zebrafish AB strains were obtained from the Zebrafish International Resource Center. Embryos were injected with 1 mM morpholino oligos (GeneTools) at the 1-2 cell stage and cultured at 28.5° C. in sterile egg water. The following morpholino sequences were used: control scrambled MO: 5′-CCTCTTACCTCAGTTACAATTTATA-3′ (SEQ ID NO:1), Pkd2: 5′-AGGACGAACGCGACTGGGCTCATC-3′ (SEQ ID NO:2). The cardiac function was assessed by placing zebrafish on their dorsal axis to examine the relative locations of the ventricle and bulbus arteriosus, blood circulation and the heartbeat. Measurements of blood flow characteristics and heart parameters were performed using a Nikon Eclipse Ti microscope. NIS-Elements High Content AR 4.30.02 (Nikon) was used for the live tracking of the speed and acceleration of a single blood cell.

Q: For `Oc1ccc(C2CNCCc3c2cc(O)c(O)c3Cl)cc1` (stereo not drawn) [Fenoldopam, fenoldopam], which “cilia length in aorta and heart” value ([1]; 24 or 72 hours after treatment) is on record?
A: Its value is “increased by CTNDDS but not fenoldopam”.

Q: What about the “blood urea nitrogen (BUN)” value ([1]; Pkd2 mice) of the same compound?
A: The value was “could not be corrected”.

Q: And the plasma nitrate/nitrite ([1]; Pkd2 mice)?
A: Its plasma nitrate/nitrite is “could not be corrected”.

Q: What about the “acute blood pressure and heart rate” value ([1]; Pkd2 mice, 10-minute infusion) of the same compound?
A: Its value is “significantly decreased blood pressure followed by reflex tachycardia”.

Q: What about the “blood pressure (SBP, MAP)” value ([1]; hypertensive Pkd2 mice, every 3 days for 8 weeks) of the same compound?
A: Its value is “no long-term effect”.

Q: What about the “acute blood pressure and heart rate” value ([2]; 60 minutes after infusion) of the same compound?
A: Its value is “immediate decrease in blood pressure, followed by reflex tachycardia”.

Q: And the “blood pressure (SBP, MAP)” value ([2]; Pkd2 mice, every 72 hours for 8 weeks)?
A: The value was “did not result in an overall decrease in systemic blood pressure”.

Q: What about the mortality ([2]; Pkd2 mice, repeated infusions for 8 weeks) of the same compound?
A: The mortality was 40%.

Q: And the “duration of blood pressure decrease” value ([2]; after infusion)?
A: The value was “approximately one”.

Q: What about the cilia length ([2]; continuous infusion for 5 days) of the same compound?
A: Its cilia length is “increased the cilia length”.

Q: And the ERK phosphorylation (p-ERK)?
A: Its ERK phosphorylation is “increased ERK phosphorylation”.

Q: And the “tolerability of bolus injection” value (Pkd2 zebrafish)?
A: The value was “tachycardia-associated death”.
